Measurements from patent US20220370440A1 (Lead Discovery Center GmbH, priority 2018, published 2022).

Assays:
[1] = molecular target: Her2 Exon 20 INSYVMA Ba/F3 (Homo sapiens, UniProt P04626, DUP772-775, cells depend on it); test: Her2 Exon 20 INSYVMA Ba/F3 CellTiter-Glo; format: cell-based; details: CellTiter-Glo, 72 h, read-out: Her2 Exon 20 INSYVMA Ba/F3 CTG IC50
How it was run: (§1)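 ATP-based luminescence (CellTiter-Glo) after 72 h compound exposure gives viability; IC50 from dose-response fit. Cells seeded 24 h ahead at 37 °C, 5% CO2. Controls: DMSO vehicle and 10 μM staurosporine; runs kept only if Z′ ≥0.5.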

[2] = Metabolic stability in mouse liver microsomes without cofactor NADPH; format: in vitro ADME; details: 3 μM test compound, mouse liver microsomes, without NADPH, 50 min, 37° C., LC-MS/MS
How it was run: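 Cofactor-free incubation: no NADPH added to mouse liver microsomes, with compound at 3 μM and 37° C. Remaining parent was quantified by LC-MS/MS at time points up to 50 minutes to track depletion.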

HER2 INS YVMA = molecular target: T1, HER2 INS YVMA (Homo sapiens, UniProt P04626, INS775YVMA); test: Lance Kinase Activity Assay, HER2 INS YVMA (Her2 Exon 20 INSYVMA Lance); format: biochemical; details: biochemical Lance assay
T1 construct: purchased DPF
T1 sequence (P04626 with tags, fused parts or gaps INS775YVMA): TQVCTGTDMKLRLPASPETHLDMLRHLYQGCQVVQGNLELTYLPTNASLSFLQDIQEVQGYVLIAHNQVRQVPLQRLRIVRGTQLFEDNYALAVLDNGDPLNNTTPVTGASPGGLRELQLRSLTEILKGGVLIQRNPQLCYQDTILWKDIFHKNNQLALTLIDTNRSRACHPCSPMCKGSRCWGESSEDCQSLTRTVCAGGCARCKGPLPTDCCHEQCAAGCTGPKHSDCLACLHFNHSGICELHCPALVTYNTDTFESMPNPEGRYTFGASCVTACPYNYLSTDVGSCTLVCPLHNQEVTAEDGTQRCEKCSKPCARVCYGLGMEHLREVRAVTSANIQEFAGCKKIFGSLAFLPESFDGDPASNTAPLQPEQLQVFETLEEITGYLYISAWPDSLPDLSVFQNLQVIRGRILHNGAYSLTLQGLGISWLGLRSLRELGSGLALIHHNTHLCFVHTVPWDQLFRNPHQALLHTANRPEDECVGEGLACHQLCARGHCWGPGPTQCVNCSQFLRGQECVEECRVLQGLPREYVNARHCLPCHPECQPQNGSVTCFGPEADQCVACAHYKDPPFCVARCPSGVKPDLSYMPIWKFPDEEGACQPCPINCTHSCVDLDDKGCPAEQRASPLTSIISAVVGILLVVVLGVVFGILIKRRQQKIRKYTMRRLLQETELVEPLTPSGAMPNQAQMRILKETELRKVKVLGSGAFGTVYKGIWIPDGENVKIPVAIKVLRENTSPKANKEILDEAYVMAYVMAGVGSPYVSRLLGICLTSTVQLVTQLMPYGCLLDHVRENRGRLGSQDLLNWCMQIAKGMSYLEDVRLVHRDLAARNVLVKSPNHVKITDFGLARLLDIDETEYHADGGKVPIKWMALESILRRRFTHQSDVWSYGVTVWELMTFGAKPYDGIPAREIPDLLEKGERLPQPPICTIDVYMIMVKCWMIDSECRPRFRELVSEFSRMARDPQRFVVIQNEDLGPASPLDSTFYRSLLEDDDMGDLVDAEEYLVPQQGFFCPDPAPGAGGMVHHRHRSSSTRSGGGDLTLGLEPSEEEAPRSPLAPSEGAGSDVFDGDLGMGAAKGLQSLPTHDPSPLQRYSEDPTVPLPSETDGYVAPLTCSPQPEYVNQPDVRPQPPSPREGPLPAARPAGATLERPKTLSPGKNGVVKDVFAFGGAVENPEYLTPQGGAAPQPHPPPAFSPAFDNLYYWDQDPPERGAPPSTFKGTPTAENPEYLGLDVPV
How it was run: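 IC50 was fitted to sigmoidal curves of TR-FRET signal (665 and 615 nm emission after 340 nm excitation) from an Eu anti-phospho antibody binding the phosphorylated ULight peptide. The ATP-started reaction ran 1 h at RT and was then quenched with 10 mM EDTA plus antibody for a further 1 h. Compounds were tested as 8-point, 3-fold dilutions.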

H1781 = H1781 CellTiter-Glo; format: cell-based; details: NCI-H1781; 72 h compound incubation; read-out: H1781 CTG IC50
How it was run: (§2)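 In this viability format, compound-treated cells sit 72 h at 37° C. before ATP content is quantified by luminescence, and IC50 is taken from the fitted dose-response curve.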

EGFR wt = EGFR wt (Homo sapiens, UniProt P00533); test: EGFR wt Lance assay; format: biochemical
EGFR wt, sequence (P00533 25-1210): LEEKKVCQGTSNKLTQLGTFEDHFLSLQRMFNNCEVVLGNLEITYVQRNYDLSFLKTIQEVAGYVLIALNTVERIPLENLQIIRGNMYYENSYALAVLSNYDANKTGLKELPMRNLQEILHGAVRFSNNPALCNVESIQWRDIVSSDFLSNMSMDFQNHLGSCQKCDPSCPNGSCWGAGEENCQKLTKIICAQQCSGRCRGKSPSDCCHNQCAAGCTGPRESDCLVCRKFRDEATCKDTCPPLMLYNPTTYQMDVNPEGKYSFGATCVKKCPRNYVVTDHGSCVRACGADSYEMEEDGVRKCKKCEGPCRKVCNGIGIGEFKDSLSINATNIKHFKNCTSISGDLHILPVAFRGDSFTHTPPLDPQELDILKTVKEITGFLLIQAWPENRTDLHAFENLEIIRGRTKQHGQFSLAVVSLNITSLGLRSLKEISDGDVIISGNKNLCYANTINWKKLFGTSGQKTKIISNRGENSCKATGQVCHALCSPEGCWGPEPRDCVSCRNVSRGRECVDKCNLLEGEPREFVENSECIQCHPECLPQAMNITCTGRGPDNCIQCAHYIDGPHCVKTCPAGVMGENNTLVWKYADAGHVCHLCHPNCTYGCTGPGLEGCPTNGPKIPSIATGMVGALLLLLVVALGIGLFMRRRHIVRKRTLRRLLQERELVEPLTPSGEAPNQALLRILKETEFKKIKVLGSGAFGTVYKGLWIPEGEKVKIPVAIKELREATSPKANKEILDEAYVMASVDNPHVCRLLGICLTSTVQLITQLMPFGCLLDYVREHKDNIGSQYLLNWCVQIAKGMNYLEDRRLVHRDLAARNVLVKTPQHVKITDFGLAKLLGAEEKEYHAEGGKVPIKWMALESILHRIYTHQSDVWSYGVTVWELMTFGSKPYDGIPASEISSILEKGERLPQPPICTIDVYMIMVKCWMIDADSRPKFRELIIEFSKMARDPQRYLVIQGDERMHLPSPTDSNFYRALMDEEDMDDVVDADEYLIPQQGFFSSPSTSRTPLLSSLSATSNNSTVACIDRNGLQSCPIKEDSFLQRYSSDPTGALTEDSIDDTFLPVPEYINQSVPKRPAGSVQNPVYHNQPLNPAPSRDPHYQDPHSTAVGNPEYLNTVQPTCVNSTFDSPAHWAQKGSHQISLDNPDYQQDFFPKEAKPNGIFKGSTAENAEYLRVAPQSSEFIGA
Method: (§3) Inhibition is indicated as […] [nM] (“−”=not measured). Compounds having an activity designated as “A” provided an IC50≤100 nM; compounds having an activity designated as “B” provided an 100 nM<IC50≤500 nM; compounds having an activity designated as “C” provided an 500 nM<IC50≤1000 nM; compounds having an activity designated as “D” provided an 1000 nM<IC50≤100000 nM; and compounds having an activity designated as “E” provided an IC50>10000 nM.

EGFR T790ML858R = EGFR T790ML858R (Homo sapiens, UniProt P00533, L858R/T790M); test: EGFR T790ML858R Lance assay; format: biochemical
EGFR T790ML858R, sequence (P00533 25-1210 T790M/L858R): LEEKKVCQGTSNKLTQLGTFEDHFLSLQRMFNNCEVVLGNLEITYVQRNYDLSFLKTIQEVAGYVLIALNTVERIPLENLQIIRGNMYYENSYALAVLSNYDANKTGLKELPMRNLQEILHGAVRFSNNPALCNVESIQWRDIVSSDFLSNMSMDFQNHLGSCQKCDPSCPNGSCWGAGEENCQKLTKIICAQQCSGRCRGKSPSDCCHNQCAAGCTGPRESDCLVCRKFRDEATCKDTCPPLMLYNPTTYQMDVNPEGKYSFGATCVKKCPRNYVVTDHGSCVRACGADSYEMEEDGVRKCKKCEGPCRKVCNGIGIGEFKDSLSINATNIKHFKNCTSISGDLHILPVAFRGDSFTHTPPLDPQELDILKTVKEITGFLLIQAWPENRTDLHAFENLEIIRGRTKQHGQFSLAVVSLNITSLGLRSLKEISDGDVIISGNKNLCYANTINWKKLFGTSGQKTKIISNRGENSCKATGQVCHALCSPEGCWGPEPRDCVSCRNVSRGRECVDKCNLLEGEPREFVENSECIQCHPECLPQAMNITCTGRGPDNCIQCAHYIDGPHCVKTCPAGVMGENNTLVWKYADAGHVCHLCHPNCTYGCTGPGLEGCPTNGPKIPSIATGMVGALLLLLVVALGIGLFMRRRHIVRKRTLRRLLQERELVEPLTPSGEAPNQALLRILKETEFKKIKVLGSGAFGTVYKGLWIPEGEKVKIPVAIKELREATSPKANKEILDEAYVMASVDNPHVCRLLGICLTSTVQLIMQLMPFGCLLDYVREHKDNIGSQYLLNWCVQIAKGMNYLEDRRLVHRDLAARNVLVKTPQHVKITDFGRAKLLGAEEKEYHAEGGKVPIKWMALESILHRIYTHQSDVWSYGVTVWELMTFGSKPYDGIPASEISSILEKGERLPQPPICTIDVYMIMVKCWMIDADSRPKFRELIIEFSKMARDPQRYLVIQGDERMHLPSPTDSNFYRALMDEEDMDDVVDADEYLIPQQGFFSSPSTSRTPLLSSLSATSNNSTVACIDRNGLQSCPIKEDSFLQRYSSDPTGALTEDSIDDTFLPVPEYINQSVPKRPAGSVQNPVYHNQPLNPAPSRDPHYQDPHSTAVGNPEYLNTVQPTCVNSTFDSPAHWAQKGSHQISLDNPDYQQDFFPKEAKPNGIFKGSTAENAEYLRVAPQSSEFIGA
Method: as §3

[3] = molecular target: EGFR Exon 20 INSNPH Ba/F3 (Homo sapiens, UniProt P00533, DUP771-773, cells depend on it); test: EGFR Exon 20 INSNPH Ba/F3 CellTiter-Glo; format: cell-based; details: CellTiter-Glo, 72 h, read-out: EGFR Exon 20 INSNPH Ba/F3 CTG IC50
How it was run: as §1

A431 = A431 CellTiter-Glo; format: cell-based; details: Homo sapiens, A-431; 72 h compound incubation; read-out: A431 CTG IC50
How it was run: as §2

H1975 = H1975 CellTiter-Glo; format: cell-based; details: Homo sapiens, NCI-H1975; 72 h compound incubation; read-out: H1975 CTG IC50
How it was run: as §2

Her2 Exon 20 INSYVMA Ba/F3, sequence (P04626 with tags, fused parts or gaps DUP772-775): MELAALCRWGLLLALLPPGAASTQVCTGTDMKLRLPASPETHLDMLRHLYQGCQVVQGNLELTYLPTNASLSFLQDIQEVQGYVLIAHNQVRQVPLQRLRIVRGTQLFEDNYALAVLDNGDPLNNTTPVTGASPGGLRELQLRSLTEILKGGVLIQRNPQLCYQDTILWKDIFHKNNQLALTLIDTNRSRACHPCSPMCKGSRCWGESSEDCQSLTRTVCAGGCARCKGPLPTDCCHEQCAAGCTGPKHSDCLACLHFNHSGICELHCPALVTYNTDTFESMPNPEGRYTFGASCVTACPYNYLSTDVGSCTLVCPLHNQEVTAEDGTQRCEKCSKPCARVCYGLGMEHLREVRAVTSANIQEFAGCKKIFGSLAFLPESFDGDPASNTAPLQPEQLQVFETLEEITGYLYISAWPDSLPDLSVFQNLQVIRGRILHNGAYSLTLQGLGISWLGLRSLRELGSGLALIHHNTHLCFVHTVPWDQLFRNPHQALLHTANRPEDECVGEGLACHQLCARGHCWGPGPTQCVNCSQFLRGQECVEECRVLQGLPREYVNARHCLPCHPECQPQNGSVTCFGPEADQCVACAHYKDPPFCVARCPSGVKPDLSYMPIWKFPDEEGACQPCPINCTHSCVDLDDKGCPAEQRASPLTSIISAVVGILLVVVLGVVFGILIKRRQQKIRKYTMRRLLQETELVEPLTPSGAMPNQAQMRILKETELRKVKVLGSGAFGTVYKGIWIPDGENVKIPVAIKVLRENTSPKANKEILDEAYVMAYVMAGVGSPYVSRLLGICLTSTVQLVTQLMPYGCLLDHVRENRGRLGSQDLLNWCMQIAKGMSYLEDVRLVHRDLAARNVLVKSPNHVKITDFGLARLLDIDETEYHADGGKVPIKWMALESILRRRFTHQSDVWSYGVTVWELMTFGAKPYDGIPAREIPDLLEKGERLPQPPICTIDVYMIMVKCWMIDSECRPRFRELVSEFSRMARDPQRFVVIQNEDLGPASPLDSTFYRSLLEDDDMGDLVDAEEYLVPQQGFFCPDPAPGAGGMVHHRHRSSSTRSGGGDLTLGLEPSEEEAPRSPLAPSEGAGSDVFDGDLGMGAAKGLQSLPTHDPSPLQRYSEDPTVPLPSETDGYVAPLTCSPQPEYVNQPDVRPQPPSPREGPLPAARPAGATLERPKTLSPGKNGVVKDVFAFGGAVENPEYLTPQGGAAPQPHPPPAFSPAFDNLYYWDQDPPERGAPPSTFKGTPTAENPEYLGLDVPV

GI50 [1]	Stability in presence of mouse liver microsomes without cofactor NADPH [% remaining after 50 min] [2]	IC50 (HER2 INS YVMA)	IC50 (H1781)	IC50 (EGFR wt)	IC50 (EGFR T790ML858R)	GI50 [3]	IC50 (A431)	IC50 (H1975)	Compound
100 to 500 nM	>99 % remaining after 50 min	≤ 100 nM	500 to 1000 nM	≤ 100 nM	≤ 100 nM	100 to 500 nM	500 to 1000 nM	100 to 500 nM	C=CC(=O)N1CCc2ccc(-c3c(-c4ccc(CN5CCN(C)CC5)cc4)[nH]c4nccc(Cl)c34)cc21 [Example 60, 1-(6-(4-chloro-2-(4-((4-methylpiperazin-1-yl)methyl)phenyl)-1H-pyrrolo[2,3-b]pyridin-3-yl)indolin-1-yl)prop-2-en-1-one]
≤ 100 nM	99 % remaining after 50 min	≤ 100 nM	100 to 500 nM	≤ 100 nM	≤ 100 nM	≤ 100 nM	100 to 500 nM	≤ 100 nM	C=CC(=O)Nc1cc(-c2c(-c3ccc(C4CCN(C)CC4)cc3)[nH]c3nccc(OC)c23)ccc1C [Example 73, N-(5-(4-methoxy-2-(4-(1-methylpiperidin-4-yl)phenyl)-1H-pyrrolo[2,3-b]pyridin-3-yl)-2-methylphenyl)acrylamide]
